# Data reported in patent publication US20070197556A1, “Fungicidal Mixtures” (priority 2004, published 2007).
# Test system: Pyrenophora teres
# Experiment: activity against net blotch of barley caused by Pyrenophora teres, 1 day protective application
# Assay type: in vivo
# Details: individual active compound, 5 ppm in the spray liquor, barley seedlings cultivar Hanna, assessed after 6 days
# Method: The active compounds were prepared separately as a stock solution comprising 25 mg of active compound which was made up to 10 ml using a mixture of acetone and/or DMSO and the emulsifier Uniperol® EL (wetting agent having emulsifying and dispersing action based on ethoxylated alkylphenols) in a volume ratio solvent:emulsifier of 99:1. The mixture was then made up with water to 100 ml. The active compounds or mixtures were mixed or diluted with water to the desired concentration.
# Use example—activity against net blotch of barley caused by Pyrenophora teres, 1 day protective application
# Leaves of potted barley seedlings of the cultivar “Hanna” were sprayed to runoff point with an aqueous suspension having the concentration of active compound stated below. 24 hours after the spray coating had dried on, the test plants were inoculated blotch pathogen. […] After 6 days, the extent of the development of the disease was determined visually in % infection of the entire leaf area.
# The visually determined values for the percentages of infected leaf areas were converted into efficacies in % of the untreated control:
# The efficacy (E) is calculated as follows using Abbot's formula: E=(1−α/β)·100 • α corresponds to the fungal infection of the treated plants in % and • β corresponds to the fungal infection of the untreated (control) plants in % […]
compound,measurement,value
"CC1CCN(c2c(-c3c(F)cc(F)cc3F)c(Cl)nc3ncnn23)CC1 [I, 5-chloro-7-(4-methylpiperidin-1-yl)-6-(2,4,6-trifluorophenyl)[1,2,4]tri-azolo[1,5-a]pyrimidine]",Efficacy in % of the untreated control,72%
